Data published in ChEMBL document CHEMBL1201862, “PubChem BioAssay data set” (2004).
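Method: 48-hour compound exposure of cells in 96-well plates, five concentrations, linear interpolation of endpoints. Abbreviation: GI50, concentration required for 50% inhibition of growth.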 Calls of active or inactive are those of the source. Cut-off read from the data, not from the text of the source: active = GI50 up to about 1.1 µM and inactive = higher.

Assays:
Experiment in all cases: NCI tumour cell line growth inhibition, 48 h
A498 = tested on: A498
CAKI-1 = tested on: CAKI-1
CCRF-CEM = tested on: CCRF-CEM
HOP-62 = tested on: HOP-62
LOX IMVI = tested on: LOX IMVI
SF-268 = tested on: SF-268
SF-295 = tested on: SF-295
SF-539 = tested on: SF-539
SK-MEL-28 = tested on: SK-MEL-28
TK-10 = tested on: TK-10
UACC-62 = tested on: UACC-62
UO-31 = tested on: UO-31
HL-60 = tested on: HL-60
NCI-H226 = tested on: NCI-H226
OVCAR-3 = tested on: OVCAR-3
OVCAR-5 = tested on: OVCAR-5
RPMI-8226 = tested on: RPMI-8226

Row | Structure (SMILES) | GI50 (A498) | GI50 (CAKI-1) | GI50 (CCRF-CEM) | GI50 (HOP-62) | GI50 (LOX IMVI) | GI50 (SF-268) | GI50 (SF-295) | GI50 (SF-539) | GI50 (SK-MEL-28) | GI50 (TK-10) | GI50 (UACC-62) | GI50 (UO-31) | GI50 (HL-60) | GI50 (NCI-H226) | GI50 (OVCAR-3) | GI50 (OVCAR-5) | GI50 (RPMI-8226)
1 | Cc1nc2ccccc2c(=O)n1/N=C(\N=N\c1ccc(Cl)cc1)c1ccc(N(C)C)cc1 | > 100 µM (inactive) | > 100 µM (inactive) | 81.5 µM (inactive) | 66.4 µM (inactive) | > 100 µM (inactive) | 32.7 µM (inactive) | > 100 µM (inactive) | > 100 µM (inactive) | 26.2 µM (inactive) | > 100 µM (inactive) | 70.3 µM (inactive) | 21.8 µM (inactive) |  |  |  |  | 
2 | O=C(Cn1ccnc1[N+](=O)[O-])NCc1ccc(F)cc1 | > 100 µM (inactive) | > 100 µM (inactive) | > 100 µM (inactive) | > 100 µM (inactive) | > 100 µM (inactive) | > 100 µM (inactive) | > 100 µM (inactive) | > 100 µM (inactive) | > 100 µM (inactive) | > 100 µM (inactive) | > 100 µM (inactive) | > 100 µM (inactive) | > 100 µM (inactive) | 40.2 µM (inactive) | 33.5 µM (inactive) | > 100 µM (inactive) | > 100 µM (inactive)
3 | Cn1c2c(c3ccccc31)C1CCCCC1C1C(=O)NC(=O)C21 (stereo not given) | 22.5 µM (inactive) |  | 36.6 µM (inactive) |  | 33.1 µM (inactive) | 70.1 µM (inactive) | 57.7 µM (inactive) | 80.7 µM (inactive) | 88.9 µM (inactive) | > 100 µM (inactive) | > 100 µM (inactive) | 28.6 µM (inactive) | 26.6 µM (inactive) | 21.6 µM (inactive) | 17 µM (inactive) | > 100 µM (inactive) | 41.8 µM (inactive)
4 | C1CN2CCN3CCN4CCN1[PH]243 | > 100 µM (inactive) |  | > 100 µM (inactive) | > 100 µM (inactive) | > 100 µM (inactive) |  | > 100 µM (inactive) | > 100 µM (inactive) | > 100 µM (inactive) | > 100 µM (inactive) | > 100 µM (inactive) | > 100 µM (inactive) | > 100 µM (inactive) | > 100 µM (inactive) | > 100 µM (inactive) | > 100 µM (inactive) | > 100 µM (inactive)
5 | Cc1cc2c(cc1C)[n+]([O-])c(C(=O)CC(=O)C(=O)Nc1c(C(C)C)cccc1C(C)C)c(C)[n+]2[O-] | > 100 µM (inactive) | > 100 µM (inactive) | > 100 µM (inactive) | > 100 µM (inactive) | > 100 µM (inactive) | > 100 µM (inactive) | > 100 µM (inactive) | > 100 µM (inactive) | > 100 µM (inactive) | > 100 µM (inactive) | > 100 µM (inactive) | > 100 µM (inactive) |  | > 100 µM (inactive) | > 100 µM (inactive) | > 100 µM (inactive) | > 100 µM (inactive)
6 | O=C1OCCC1(Cc1ccc(Cl)cc1)Cc1ccc(Cl)cc1 | 46 µM (inactive) | > 100 µM (inactive) | > 100 µM (inactive) | 31.3 µM (inactive) |  | > 100 µM (inactive) | 34 µM (inactive) |  | > 100 µM (inactive) | 46.8 µM (inactive) | > 100 µM (inactive) | 54.7 µM (inactive) | > 100 µM (inactive) | > 100 µM (inactive) | > 100 µM (inactive) | > 100 µM (inactive) | > 100 µM (inactive)
7 | COCOCCC#CCO | > 100 µM (inactive) |  | > 100 µM (inactive) |  | > 100 µM (inactive) | > 100 µM (inactive) | > 100 µM (inactive) | > 100 µM (inactive) | > 100 µM (inactive) | > 100 µM (inactive) | > 100 µM (inactive) | > 100 µM (inactive) | > 100 µM (inactive) |  | > 100 µM (inactive) | > 100 µM (inactive) | > 100 µM (inactive)
8 | CCOC(=O)COS(=O)(=O)C(F)(F)F | > 100 µM (inactive) | > 100 µM (inactive) | > 100 µM (inactive) | > 100 µM (inactive) | 18.8 µM (inactive) | 60.4 µM (inactive) | > 100 µM (inactive) | > 100 µM (inactive) | > 100 µM (inactive) | > 100 µM (inactive) | > 100 µM (inactive) | > 100 µM (inactive) | > 100 µM (inactive) | > 100 µM (inactive) | > 100 µM (inactive) | > 100 µM (inactive) | 23.9 µM (inactive)
9 | Clc1ccc(CCN2CCOCC2)c(Cl)c1 | > 100 µM (inactive) | > 100 µM (inactive) | > 100 µM (inactive) | > 100 µM (inactive) |  | > 100 µM (inactive) | > 100 µM (inactive) | > 100 µM (inactive) | > 100 µM (inactive) |  | 92.5 µM (inactive) | > 100 µM (inactive) | > 100 µM (inactive) |  |  | > 100 µM (inactive) | > 100 µM (inactive)
10 | COC(=O)C12C(=O)O[C@H](C)C1(O)C(C)C(=O)N2C (stereo not given in full) |  | > 100 µM (inactive) |  | > 100 µM (inactive) |  |  | > 100 µM (inactive) | > 100 µM (inactive) | > 100 µM (inactive) | > 100 µM (inactive) | > 100 µM (inactive) | > 100 µM (inactive) |  |  | > 100 µM (inactive) | > 100 µM (inactive) | > 100 µM (inactive)
11 | CCOc1ccc(NC(=O)C2=C(C)NC(C)=C(C(=O)Nc3ccc(OCC)cc3)C2c2ccc(O)c(OC)c2)cc1 | 19.3 µM (inactive) | > 100 µM (inactive) | 46.9 µM (inactive) | 29.5 µM (inactive) | > 100 µM (inactive) | > 100 µM (inactive) | 54.7 µM (inactive) | 28.8 µM (inactive) | 53.2 µM (inactive) | > 100 µM (inactive) |  | 52.4 µM (inactive) | 42.7 µM (inactive) | 40.3 µM (inactive) | > 100 µM (inactive) | > 100 µM (inactive) | 28.6 µM (inactive)
12 | CCOP(=O)(OCC)C1CCCCOC1=O (stereo not given) | > 100 µM (inactive) | > 100 µM (inactive) | 76.7 µM (inactive) | > 100 µM (inactive) | 19.9 µM (inactive) | > 100 µM (inactive) | > 100 µM (inactive) | > 100 µM (inactive) | > 100 µM (inactive) | > 100 µM (inactive) | > 100 µM (inactive) | > 100 µM (inactive) | > 100 µM (inactive) |  | > 100 µM (inactive) |  | > 100 µM (inactive)
13 | C=C(CO)CC(/C=C(\C)CC/C=C(\C)CCl)OC(C)=O (stereo not given) | > 100 µM (inactive) |  | > 100 µM (inactive) | > 100 µM (inactive) | > 100 µM (inactive) | > 100 µM (inactive) | > 100 µM (inactive) | > 100 µM (inactive) | > 100 µM (inactive) | > 100 µM (inactive) | > 100 µM (inactive) | > 100 µM (inactive) | > 100 µM (inactive) | > 100 µM (inactive) | > 100 µM (inactive) | > 100 µM (inactive) | > 100 µM (inactive)
14 | OC12c3ccccc3C1CCCCC2N1CCCC1 (stereo not given) |  |  | > 100 µM (inactive) | > 100 µM (inactive) | > 100 µM (inactive) | > 100 µM (inactive) | > 100 µM (inactive) |  | > 100 µM (inactive) | > 100 µM (inactive) | > 100 µM (inactive) | > 100 µM (inactive) | > 100 µM (inactive) | > 100 µM (inactive) |  |  | > 100 µM (inactive)
15 | O=C(Cc1ccccc1)N/N=C(/c1nc2ccc([N+](=O)[O-])cc2nc1O)C(O)c1ccco1 (stereo not given) | > 100 µM (inactive) | 60.8 µM (inactive) | 43.7 µM (inactive) | > 100 µM (inactive) | > 100 µM (inactive) | > 100 µM (inactive) | > 100 µM (inactive) | > 100 µM (inactive) | > 100 µM (inactive) | > 100 µM (inactive) | > 100 µM (inactive) | > 100 µM (inactive) | 31.8 µM (inactive) | > 100 µM (inactive) |  | > 100 µM (inactive) | > 100 µM (inactive)
16 | CN(C)CCCNC(=O)c1cccc2nc3ccccc3nc12 | 16 µM (inactive) | > 36.1 µM (inactive) |  | 19.9 µM (inactive) | 6.52 µM (inactive) | 0.32 µM (active) | 19.5 µM (inactive) | 16.3 µM (inactive) | 19.2 µM (inactive) | 27.7 µM (inactive) | 24.1 µM (inactive) | 24.5 µM (inactive) |  | 12 µM (inactive) | 19.4 µM (inactive) | 20.9 µM (inactive) | 20.1 µM (inactive)
17 | Cc1ccc(NC(=O)CC/C(CC(=O)C(C)(C)C)=N/NC(=O)C[N+](C)(C)C)cc1C |  | > 100 µM (inactive) | > 100 µM (inactive) | > 100 µM (inactive) | > 100 µM (inactive) | > 100 µM (inactive) | > 100 µM (inactive) | 18.6 µM (inactive) | > 100 µM (inactive) | > 100 µM (inactive) | > 100 µM (inactive) | > 100 µM (inactive) | > 100 µM (inactive) | > 100 µM (inactive) | > 100 µM (inactive) | > 100 µM (inactive) | 
18 | CC1=C(C(=O)CC(=O)C(=O)Nc2ccccc2)Sc2ccccc2N1 | > 100 µM (inactive) |  | > 100 µM (inactive) | > 100 µM (inactive) | > 100 µM (inactive) | > 100 µM (inactive) | > 100 µM (inactive) | > 100 µM (inactive) | > 100 µM (inactive) |  | > 100 µM (inactive) | > 100 µM (inactive) | > 100 µM (inactive) | > 100 µM (inactive) | > 100 µM (inactive) | > 100 µM (inactive) | > 100 µM (inactive)
